# Assay results reported in patent publication US6340696B1, “Viral treatment” (The Procter & Gamble Company, priority 1999, dated 2002).
# Read-outs that look alike come from different tables or passages of the source. Marks after values point to notes of the source that are not given here.
# Assays:
# BVDV = BVDV antiviral assay in MDBK cells, XTT readout of inhibition of virus-induced cell killing; format: cell-based; conditions: for Comments: activity against BVDV / toxicity; for TI: TC50/IC50
# Method: (§1) Madin-Darby bovine kidney (MDBK) cells were passaged in T-75 flasks for use in the assay. On the day preceding the assay, the cells were trypsinized, pelleted, counted and resuspended at 6×10^4/well in tissue culture medium. Cells were added to 96 well flat bottom plates in a volume of 100 μl per well.
# A pretitered aliquot of virus is removed from the freezer (−80° C.) and allowed to thaw slowly to room temperature in a biological safety cabinet. The virus is diluted into tissue culture medium such that the amount of virus added to each well in a volume of 100 μl will be the amount determined to give complete cell killing at 6 days post-infection.
# (§2) Interferon was purchased from PBL Biomedical Laboratories (New Brunswick, N.J.) and was in PBS solutions. On the day of testing, the drug stock is diluted in the medium to the desired high concentration and then further diluted in the medium in half log series.
# (§3) The day following plating of cells, plates are removed from the incubator, and medium is removed and discarded. Drug dilutions are added to appropriate wells of the microtiter plate in a volume of 100 μl per well. Each dilution is set up in triplicate. Complete medium or complete medium containing appropriately diluted virus is added to appropriate wells in a volume of 100 μl per well.
# (§4) The format of the test plate has been standardized. Each plate contains cell control wells (cell only), virus control wells (cells plus virus), drug toxicity control wells (cells plus drug only), drug colorimetric control wells (drug only) as well as experimental wells (drugs plus cells plus virus).
# (§5) The cell viability was evaluated by a dye (XTT) uptake procedure. XTT-tetraolium is metabolized by the mitochontrial enzymes of metabolically active cells to a soluble formazan product, allowing the rapid quantitative analysis of the inhibition of virus-induced cell killing by antiviral test substances.
# (§6) XTT solution was prepared daily as a stock of 1 mg/ml in PBS. Phenazine methosulfate (PMS) solution was prepared at 15 mg/ml in PVBS and stored in the dark at −20° C. STT/PMS stock was prepared immediately before use by diluting PMS 1:100 into PBS and adding 40 μl per ml of XTT solution. Fifty microliters of XTT/PMS was added to each well of the plate (each well had been loaded with 100 μl fresh medium) and the plate was reincubated for 4 hours at 37° C.
# (§7) Adhesive plate sealers were used in place of the lids, the sealed plate was inverted several times to mix the soluble formazan product and the plate was read spectrophotometrically at 450 nm (XTT) with a Molecular Devices Vmax plate reader.
# (§8) The efficacy and toxicity of inteferons are analyzed using a computer program (developed by Southern Research Institute) which calculates % CPE reduction, % cell viability, IC25,50 & 95, TC5,50 & 95 and other indices.
# (§9) Combination effects are analyzed statistically by Prichard and Shipman method. Effects of the drug combination on efficacy and toxicity are calculated based on the activity or toxicity of the two compounds when tested alone. The expected additive inhibition rate of virus production or the expected additive cell viability rate subtracted from the experimentally determined inhibition rate or viability rate at each combination concentration results in a positive value (synergy), a negative value (antagonism), or zero (addivity).
# [1] = tested on: Madin-Darby bovine kidney (MDBK) cells; assay: Cytotoxicity in MDBK cells (drug toxicity control wells, XTT)
# Method: as §1, §2, §3, §4, §5, §6, §7, §8, §9
# [2] = Compound conc 0.020, INF-αA conc 0
# [3] = Compound conc 0.020, Ribavirin conc 0
# [4] = Compound conc 0.063, INF-αA conc 0
# [5] = Compound conc 0.063, Ribavirin conc 0
# [6] = Compound conc 0.200, INF-αA conc 0
# [7] = Compound conc 0.200, Ribavirin conc 0
# [8] = Compound conc 0.633, INF-αA conc 0
# [9] = Compound conc 0.633, Ribavirin conc 0
# [10] = Compound conc 2.00, INF-αA conc 0
# [11] = Compound conc 2.00, Ribavirin conc 0
molecule,measurement,setting,value
"NC(=O)c1ncn([C@@H]2O[C@H](CO)[C@@H](O)[C@H]2O)n1 [Ribavirin, 1-β-D-ribofuranosyl-1H-1,2,4-triazole-3carboxamide, reference compound]",IC50,"BVDV; Bovine viral diarrhea virus isolates and strains, MDBK",0.66 µg/mL
same,Antiviral Percentage Inhibition,"BVDV; Compound conc 0, Ribavirin conc 0.075",0%
same,Antiviral Percentage Inhibition,"BVDV; Compound conc 0, Ribavirin conc 0.238",5.2%
same,Antiviral Percentage Inhibition,"BVDV; Compound conc 0, Ribavirin conc 0.751",5%
same,Antiviral Percentage Inhibition,"BVDV; Compound conc 0, Ribavirin conc 2.373",7.9%
same,Antiviral Percentage Inhibition,"BVDV; Compound conc 0, Ribavirin conc 7.5",43.7%
same,Antiviral Percentage Inhibition,"BVDV; Ribavirin conc 0.075, INF-αA conc 0",0%
same,Antiviral Percentage Inhibition,"BVDV; Ribavirin conc 0.238, INF-αA conc 0",5%
same,Antiviral Percentage Inhibition,"BVDV; Ribavirin conc 0.751, INF-αA conc 0",3%
same,Antiviral Percentage Inhibition,"BVDV; Ribavirin conc 2.373, INF-αA conc 0",31.5%
same,Antiviral Percentage Inhibition,"BVDV; Ribavirin conc 7.500, INF-αA conc 0",41.6%
same,Comments,BVDV,Active/Toxic
same,TC50,"[1]; MDBK cells, unit per footnote",7.19* μg/ml
"(5-Phenyl-1,2,4-thiadiazol)-3-yl thiourea [Compound]",Antiviral Percentage Inhibition,BVDV; [2],5.8%
same,Antiviral Percentage Inhibition,BVDV; [3],7.3%
same,Antiviral Percentage Inhibition,BVDV; [4],7%
same,Antiviral Percentage Inhibition,BVDV; [5],5%
same,Antiviral Percentage Inhibition,BVDV; [6],4%
same,Antiviral Percentage Inhibition,BVDV; [7],3.6%
same,Antiviral Percentage Inhibition,BVDV; [8],11.7%
same,Antiviral Percentage Inhibition,BVDV; [9],7.6%
same,Antiviral Percentage Inhibition,BVDV; [10],25.9%
same,Antiviral Percentage Inhibition,BVDV; [11],29.5%
same,combination effect on activity against BVDV in vitro (words),"BVDV; listed as (5-Phenyl -1,2,4-thiadiazol)-3-yl thiourea",acts synergistically with INF-αA
same,combination effect on activity against BVDV in vitro (words),"BVDV; listed as (5-Phenyl-1,2,4-thiadiazol)-3-yl thiourea",does not have antagonistic effect on activity of ribavirin
same,Cytotoxicity Percentage,[1]; [2],0%
same,Cytotoxicity Percentage,[1]; [3],16.3%
same,Cytotoxicity Percentage,[1]; [4],5.8%
same,Cytotoxicity Percentage,[1]; [5],6.7%
same,Cytotoxicity Percentage,[1]; [6],8.3%
same,Cytotoxicity Percentage,[1]; [7],6.2%
same,Cytotoxicity Percentage,[1]; [8],13.5%
same,Cytotoxicity Percentage,[1]; [9],16.9%
same,Cytotoxicity Percentage,[1]; [10],10.3%
same,Cytotoxicity Percentage,[1]; [11],18.8%
same,combination effect on toxicity of ribavirin towards the cells,[1]; in vitro,imposes antagonistic effect on toxicity of ribavirin
INF-α I: human IFN-α species I,IC50,BVDV; BVDV in MDBK cells,26.80 U/ml
same,TI,BVDV,>11.81
same,Comments,BVDV,Active/Nontoxic
same,TC50,[1],>316.00 U/ml
"INF-α J1: human IFN-α species J1 (protein, UniProt P01567 24-189, looked up) Interferon alpha-7: CDLPQTHSLRNRRALILLAQMGRISPFSCLKDRHEFRFPEEEFDGHQFQKTQAISVLHEMIQQTFNLFSTEDSSAAWEQSLLEKFSTELYQQLNDLEACVIQEVGVEETPLMNEDFILAVRKYFQRITLYLMEKKYSPCAWEVVRAEIMRSFSFSTNLKKGLRRKD",IC50,BVDV; BVDV in MDBK cells,10.60 U/ml
same,TI,BVDV,>29.90
same,Comments,BVDV,Active/Nontoxic
same,TC50,[1],>316.00 U/ml
"INF-α K: human IFN-α species K (protein, UniProt P05013 21-189, looked up) Interferon alpha-6: SLDCDLPQTHSLGHRRTMMLLAQMRRISLFSCLKDRHDFRFPQEEFDGNQFQKAEAISVLHEVIQQTFNLFSTKDSSVAWDERLLDKLYTELYQQLNDLEACVMQEVWVGGTPLMNEDSILAVRKYFQRITLYLTEKKYSPCAWEVVRAEIMRSFSSSRNLQERLRRKE",IC50,BVDV; BVDV in MDBK cells,24.80 U/ml
same,TI,BVDV,>12.72
same,Comments,BVDV,Active/Nontoxic
same,TC50,[1],>316.00 U/ml
"INF-α WA: human IFN-α species WA (protein, UniProt P05015 24-189, looked up) Interferon alpha-16: CDLPQTHSLGNRRALILLAQMGRISHFSCLKDRYDFGFPQEVFDGNQFQKAQAISAFHEMIQQTFNLFSTKDSSAAWDETLLDKFYIELFQQLNDLEACVTQEVGVEEIALMNEDSILAVRKYFQRITLYLMGKKYSPCAWEVVRAEIMRSFSFSTNLQKGLRRKD",IC50,BVDV; BVDV in MDBK cells,6.75 U/ml
same,TI,BVDV,>46.78
same,Comments,BVDV,Active/Nontoxic
same,TC50,[1],>316.00 U/ml
"INF-α C: human IFN-α species C (protein, UniProt P01566 24-189, looked up) Interferon alpha-10: CDLPQTHSLGNRRALILLGQMGRISPFSCLKDRHDFRIPQEEFDGNQFQKAQAISVLHEMIQQTFNLFSTEDSSAAWEQSLLEKFSTELYQQLNDLEACVIQEVGVEETPLMNEDSILAVRKYFQRITLYLIERKYSPCAWEVVRAEIMRSLSFSTNLQKRLRRKD",IC50,BVDV; BVDV in MDBK cells,9.12 U/ml
same,TI,BVDV,>34.66
same,Comments,BVDV,Active/Nontoxic
same,TC50,[1],>316.00 U/ml
"INF-α D: human IFN-α species D (protein, UniProt P01562 24-189, looked up) Interferon alpha-1/13: CDLPETHSLDNRRTLMLLAQMSRISPSSCLMDRHDFGFPQEEFDGNQFQKAPAISVLHELIQQIFNLFTTKDSSAAWDEDLLDKFCTELYQQLNDLEACVMQEERVGETPLMNADSILAVKKYFRRITLYLTEKKYSPCAWEVVRAEIMRSLSLSTNLQERLRRKE",IC50,BVDV; BVDV in MDBK cells,11.60 U/ml
same,TI,BVDV,>27.31
same,Comments,BVDV,Active/Nontoxic
same,TC50,[1],>316.00 U/ml
"INF-α F: human IFN-α species F (protein, UniProt P01568 24-189, looked up) Interferon alpha-21: CDLPQTHSLGNRRALILLAQMGRISPFSCLKDRHDFGFPQEEFDGNQFQKAQAISVLHEMIQQTFNLFSTKDSSATWEQSLLEKFSTELNQQLNDLEACVIQEVGVEETPLMNVDSILAVKKYFQRITLYLTEKKYSPCAWEVVRAEIMRSFSLSKIFQERLRRKE",IC50,BVDV; BVDV in MDBK cells,33.00 U/ml
same,TI,BVDV,>9.57
same,Comments,BVDV,Active/Nontoxic
same,TC50,[1],>316.00 U/ml
"INF-α G: human IFN-α species G (protein, UniProt P01569 22-189, looked up) Interferon alpha-5: LGCDLPQTHSLSNRRTLMIMAQMGRISPFSCLKDRHDFGFPQEEFDGNQFQKAQAISVLHEMIQQTFNLFSTKDSSATWDETLLDKFYTELYQQLNDLEACMMQEVGVEDTPLMNVDSILTVRKYFQRITLYLTEKKYSPCAWEVVRAEIMRSFSLSANLQERLRRKE",IC50,BVDV; BVDV in MDBK cells,23.60 U/ml
same,TI,BVDV,>13.40
same,Comments,BVDV,Active/Nontoxic
same,TC50,[1],>316.00 U/ml
"INF-α H2: human IFN-α species H2 (protein, UniProt P01570 24-189, looked up) Interferon alpha-14: CNLSQTHSLNNRRTLMLMAQMRRISPFSCLKDRHDFEFPQEEFDGNQFQKAQAISVLHEMMQQTFNLFSTKNSSAAWDETLLEKFYIELFQQMNDLEACVIQEVGVEETPLMNEDSILAVKKYFQRITLYLMEKKYSPCAWEVVRAEIMRSLSFSTNLQKRLRRKD",IC50,BVDV; BVDV in MDBK cells,7.00 U/ml
same,TI,BVDV,>45.12
same,Comments,BVDV,Active/Nontoxic
same,TC50,[1],>316.00 U/ml
